Laboratory results taken from ChEMBL document CHEMBL1136267, “Design and synthesis of novel PPARalpha/gamma/delta triple activators using a known PPARalpha/gamma dual activator as structural template” (Bioorg Med Chem Lett, 2003).
pEC50: −log10 of the molar value.

Key:
[1] = molecular target: T1, Peroxisome proliferator-activated receptor alpha (Homo sapiens, UniProt Q07869)
T1 sequence (Q07869 whole entry): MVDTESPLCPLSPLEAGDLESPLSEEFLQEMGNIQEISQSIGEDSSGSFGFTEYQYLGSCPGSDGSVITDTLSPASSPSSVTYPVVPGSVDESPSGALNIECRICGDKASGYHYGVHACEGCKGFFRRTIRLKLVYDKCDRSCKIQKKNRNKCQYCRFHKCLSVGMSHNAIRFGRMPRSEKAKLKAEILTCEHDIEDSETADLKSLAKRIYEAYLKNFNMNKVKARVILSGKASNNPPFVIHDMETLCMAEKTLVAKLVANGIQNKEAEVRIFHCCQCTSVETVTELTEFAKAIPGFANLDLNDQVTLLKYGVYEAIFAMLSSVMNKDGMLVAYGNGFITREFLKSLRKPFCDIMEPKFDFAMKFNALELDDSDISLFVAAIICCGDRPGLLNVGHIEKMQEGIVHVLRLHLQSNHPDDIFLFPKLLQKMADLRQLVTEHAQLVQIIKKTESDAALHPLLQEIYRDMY
Description: In vitro activation of human peroxisome proliferator activated receptor alpha

[2] = molecular target: T2, Peroxisome proliferator-activated receptor delta (Homo sapiens, UniProt Q03181); test: In vitro activation of human peroxisome proliferator activated receptor delta (PPAR delta)
T2 sequence (Q03181 whole entry): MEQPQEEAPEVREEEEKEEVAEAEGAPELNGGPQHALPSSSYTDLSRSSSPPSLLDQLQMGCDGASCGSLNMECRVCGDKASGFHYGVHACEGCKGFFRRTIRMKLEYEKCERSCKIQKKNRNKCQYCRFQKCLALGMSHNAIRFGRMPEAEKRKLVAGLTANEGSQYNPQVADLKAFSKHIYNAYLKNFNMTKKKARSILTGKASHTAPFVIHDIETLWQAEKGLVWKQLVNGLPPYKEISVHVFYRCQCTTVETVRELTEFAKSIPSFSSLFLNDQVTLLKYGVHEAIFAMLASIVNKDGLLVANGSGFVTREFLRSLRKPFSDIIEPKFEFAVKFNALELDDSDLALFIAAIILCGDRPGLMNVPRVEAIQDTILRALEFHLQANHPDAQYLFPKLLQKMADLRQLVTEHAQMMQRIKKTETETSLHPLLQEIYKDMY

[3] = molecular target: T3, Peroxisome proliferator-activated receptor gamma (Homo sapiens, UniProt P37231); test: In vitro activation of human peroxisome proliferator activated receptor gamma (PPAR gamma)
T3 sequence (P37231 whole entry): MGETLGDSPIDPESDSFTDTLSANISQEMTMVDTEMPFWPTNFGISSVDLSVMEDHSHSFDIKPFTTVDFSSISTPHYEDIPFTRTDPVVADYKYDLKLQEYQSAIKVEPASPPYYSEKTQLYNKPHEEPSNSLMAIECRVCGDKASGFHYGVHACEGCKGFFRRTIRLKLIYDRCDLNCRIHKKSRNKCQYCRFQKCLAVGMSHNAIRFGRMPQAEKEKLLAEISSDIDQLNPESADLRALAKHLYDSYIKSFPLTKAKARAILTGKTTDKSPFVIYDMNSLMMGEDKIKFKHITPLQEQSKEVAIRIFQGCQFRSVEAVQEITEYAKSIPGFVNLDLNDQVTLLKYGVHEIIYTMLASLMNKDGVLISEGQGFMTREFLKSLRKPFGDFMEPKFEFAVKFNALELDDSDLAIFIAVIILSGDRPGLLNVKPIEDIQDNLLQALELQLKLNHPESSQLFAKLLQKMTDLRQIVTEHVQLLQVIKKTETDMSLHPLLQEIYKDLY

Row | pEC50 [1] | pEC50 [2] | pEC50 [3] | SMILES
1 | 5.28 | 5.08 | 5.07 | CCO[C@@H](Cc1ccc(OC/C=C(\c2ccccc2)c2ccc(F)cc2)cc1)C(=O)O
2 | 5.35 |  | 5.48 | CCO[C@@H](Cc1ccc(OCCN(c2ccccc2)c2ccccc2)cc1)C(=O)O
3 | 5.49 | 5.47 | 5.40 | CCO[C@@H](Cc1ccc(OC/C=C(/c2ccccc2)c2ccc(F)cc2)cc1)C(=O)O
4 | 5.96 | 6.05 | 5.82 | CCO[C@@H](Cc1ccc(OC/C=C(\c2ccccc2)c2ccc(Br)cc2)cc1)C(=O)O
5 | 6.15 | 5.70 | 5.51 | CCO[C@@H](Cc1ccc(OCC=C(c2ccc(C)cc2)c2ccc(C)cc2)cc1)C(=O)O
6 | 5.66 | 5.47 | 5.37 | CCO[C@@H](Cc1ccc(OC/C=C(/c2ccccc2)c2ccc(Br)cc2)cc1)C(=O)O
7 | 5.19 | 5.24 | 5.57 | CCO[C@@H](Cc1ccc(OCC=C(c2ccccc2)c2ccccc2)cc1)C(=O)O

Second part, the compound before the results:

Row | SMILES | pEC50 [1] | pEC50 [2] | pEC50 [3]
8 | CCO[C@@H](Cc1ccc(OC/C=C(/c2ccccc2)c2ccc(-c3ccccc3)cc2)cc1)C(=O)O | 6.15 | 5.66 | 5.77
9 | CCO[C@@H](Cc1ccc(OCC=C(c2ccc(Br)cc2)c2ccc(Br)cc2)cc1)C(=O)O | 6.52 | 6.40 | 6.05
10 | CCO[C@@H](Cc1ccc(OCC=C(c2ccc(-c3ccccc3)cc2)c2ccc(-c3ccccc3)cc2)cc1)C(=O)O | 5.96 | 6.30 | 6.52
11 | CCO[C@@H](Cc1ccc(OC/C=C(\c2ccccc2)c2ccc(-c3ccco3)cc2)cc1)C(=O)O | 6.52 | 6.22 | 6.10
12 | CCO[C@@H](Cc1ccc(OC/C=C(/c2ccccc2)c2ccc(-c3ccco3)cc2)cc1)C(=O)O | 6.40 | 5.70 | 5.70
13 | CCO[C@@H](Cc1ccc(OC/C=C(\c2ccccc2)c2ccc(-c3ccccc3)cc2)cc1)C(=O)O | 6.05 | 5.66 | 6.22
14 | CCO[C@@H](Cc1ccc(OCC=C(c2ccc(-c3ccco3)cc2)c2ccc(-c3ccco3)cc2)cc1)C(=O)O | 5.70 | 6.00 | 5.54
15 | CCO[C@@H](Cc1ccc(OCC=C(c2ccc(OC)cc2)c2ccc(OC)cc2)cc1)C(=O)O | 5.66 | 6.15 | 5.66
